Where “and” joins values, the source holds several entries; their conditions need not be identical. Equal values may be shown once. Inconclusive results and toxic doses are left out.

From PubChem BioAssay AID192 (DTP/NCI, 2004) come the findings set out here.

The assay concerns BDF1 mice, B16 melanoma ip, median survival T/C. The experiment in a line: NCI In Vivo Anticancer Drug Screen. Data for tumor model B16 Melanoma (intraperitoneal) in B6D2F1 (BDF1) mice. Particulars: endpoint: median survival time, higher = longer survival. Put shortly: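 Survival or tumor size is measured after treatment of tumor-bearing mice and normalised to the vehicle-treated control group.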

The mark [1] stands for this setting: dose: 200.0 mg/kg/injection, schedule: Q01DX009 (ip), vehicle: Klucel (hydroxypropylcellulose) (HPC).
The mark [2] stands for this setting: dose: 25.0 mg/kg/injection, schedule: Q01DX009 (ip), vehicle: saline with Tween-80.
Where [3] appears, read: dose: 50.0 mg/kg/injection, schedule: Q01DX009 (ip), vehicle: saline with Tween-80.
Setting [4] is: dose: 100.0 mg/kg/injection, schedule: Q01DX009 (ip), vehicle: saline with Tween-80.
The mark [5] stands for this setting: dose: 25.0 mg/kg/injection, schedule: Q01DX009 (ip), vehicle: Klucel (hydroxypropylcellulose) (HPC).
The mark [6] stands for this setting: dose: 50.0 mg/kg/injection, schedule: Q01DX009 (ip), vehicle: Klucel (hydroxypropylcellulose) (HPC).
Where [7] appears, read: dose: 100.0 mg/kg/injection, schedule: Q01DX009 (ip), vehicle: Klucel (hydroxypropylcellulose) (HPC).

Take `CCN(CC)CCCC(C)Nc1c2ccc(Cl)cc2nc2ccc(OC)cc12` (stereo unspecified): the T/C was 94 % of control and 102 % of control (dose: 8.0 mg/kg/injection, schedule: Q01DX009 (ip), vehicle: saline with Tween-80); 100 % of control (dose: 8.0 mg/kg/injection, schedule: Q01DX009 (ip), vehicle: saline); 103 % of control (dose: 8.0 mg/kg/injection, schedule: Q01DX009 (ip), vehicle: suspension in saline); 88 % of control and 107 % of control (dose: 16.0 mg/kg/injection, schedule: Q01DX009 (ip), vehicle: saline with Tween-80); 102 % of control (dose: 16.0 mg/kg/injection, schedule: Q01DX009 (ip), vehicle: saline); 105 % of control (dose: 16.0 mg/kg/injection, schedule: Q01DX009 (ip), vehicle: suspension in saline). Further, the T/C is 96 % of control (dose: 20.0 mg/kg/injection, schedule: Q04DX003 (ip), vehicle: saline with Tween-80); 116 % of control and 118 % of control (dose: 32.0 mg/kg/injection, schedule: Q01DX009 (ip), vehicle: saline with Tween-80); 104 % of control (dose: 32.0 mg/kg/injection, schedule: Q01DX009 (ip), vehicle: saline); 107 % of control (dose: 32.0 mg/kg/injection, schedule: Q01DX009 (ip), vehicle: suspension in saline); 105 % of control (dose: 40.0 mg/kg/injection, schedule: Q04DX003 (ip), vehicle: saline with Tween-80); 101 % of control (dose: 80.0 mg/kg/injection, schedule: Q04DX003 (ip), vehicle: saline with Tween-80). The T/C (dose: 128.0 mg/kg/injection, schedule: Q01DX009 (ip), vehicle: saline with Tween-80) was 152 % of control.

With `N#CCC(=O)O`, the T/C (dose: 18.75 mg/kg/injection, schedule: Q01DX009 (ip), vehicle: saline) was 109 % of control and the T/C (dose: 37.5 mg/kg/injection, schedule: Q01DX009 (ip), vehicle: saline) is 97 % of control.

`CN(C)c1nc(N)nc(Nc2ccc(Br)cc2)c1N=O`: the T/C under setting [1] is 118 % of control.

Take `COc1cc2c(cc1OC)C(C#N)N(C(=O)c1ccccc1)C=C2` (stereo unspecified): the T/C (dose: 0.1 mg/kg/injection, schedule: Q01DX009 (ip), vehicle: other) is 102 % of control; the T/C (dose: 0.19 mg/kg/injection, schedule: Q01DX009 (ip), vehicle: other) was 104 % of control; the T/C (dose: 0.38 mg/kg/injection, schedule: Q01DX009 (ip), vehicle: other) is 107 % of control; the T/C (dose: 0.75 mg/kg/injection, schedule: Q01DX009 (ip), vehicle: other) is 111 % of control; the T/C (dose: 1.5 mg/kg/injection, schedule: Q01DX009 (ip), vehicle: other) is 112 % of control.

Turning to `O=C(Nc1cccc(Cl)c1)OCC(Cl)(Cl)Cl`, the T/C reads like this: (dose: 75.0 mg/kg/injection, schedule: Q01DX009 (ip), vehicle: Klucel (hydroxypropylcellulose) (HPC)) 109 % of control; (dose: 150.0 mg/kg/injection, schedule: Q01DX009 (ip), vehicle: Klucel (hydroxypropylcellulose) (HPC)) 103 % of control; (dose: 300.0 mg/kg/injection, schedule: Q01DX009 (ip), vehicle: Klucel (hydroxypropylcellulose) (HPC)) 103 % of control.

With `CCCC1CC[N-]CC1.CCCC1CC[N-]CC1.[Br][Pt+2]([Br])([Br])[Br]`, the T/C (dose: 3.13 mg/kg/injection, schedule: Q01DX009 (ip), vehicle: water) is 98 % of control; the T/C (dose: 6.25 mg/kg/injection, schedule: Q01DX009 (ip), vehicle: water) was 102 % of control; the T/C (dose: 12.5 mg/kg/injection, schedule: Q01DX009 (ip), vehicle: water) was 97 % of control.

Regarding `Cc1ccc(NC(=O)Nc2cccc(Cl)c2C)cc1NC(=O)Nc1cccc(Cl)c1C`, the T/C runs as follows: (dose: 6.25 mg/kg/injection, schedule: Q01DX009 (ip), vehicle: saline with Tween-80) 94 % of control; (dose: 12.5 mg/kg/injection, schedule: Q01DX009 (ip), vehicle: saline with Tween-80) 86 % of control; under setting [2], 88 % of control.

Take `CSCCC1NC(=O)C(C(C)=Nc2ccccc2)=C1O` (stereo unspecified): the T/C was 100 % of control under setting [3]; 96 % of control under setting [4]; 95 % of control (dose: 200.0 mg/kg/injection, schedule: Q01DX009 (ip), vehicle: saline with Tween-80).

Consider `O=[N+]([O-])c1cc([As](=O)(O)O)ccc1Cl`, for which the T/C under setting [5] was 100 % of control, the T/C under setting [6] is 96 % of control and the T/C under setting [7] is 96 % of control.

For `CCCCOC(=O)c1ccc(NC(=O)Nc2ccccc2)cc1`, the T/C is, setting by setting: under setting [2], 93 % of control; under setting [3], 98 % of control; under setting [4], 93 % of control.

`CCc1cc(Cc2cc(CC)cc(C(C)(C)C)c2O)c(O)c(C(C)(C)C)c1`: the T/C by setting is: under setting [7], 88 % of control; under setting [1], 88 % of control; (dose: 400.0 mg/kg/injection, schedule: Q01DX009 (ip), vehicle: Klucel (hydroxypropylcellulose) (HPC)) 89 % of control.

On to `O=c1n[n+]([O-])ccn1C1OC(CO)C(O)C1O` (stereo unspecified), for which the T/C (dose: 25.0 mg/kg/injection, schedule: Q01DX009 (ip), vehicle: saline) was 92 % of control and 108 % of control; the T/C (dose: 50.0 mg/kg/injection, schedule: Q01DX009 (ip), vehicle: saline) was 102 % of control and 115 % of control; the T/C (dose: 100.0 mg/kg/injection, schedule: Q01DX009 (ip), vehicle: saline) is 115 % of control and 120 % of control; the T/C (dose: 200.0 mg/kg/injection, schedule: Q01DX009 (ip), vehicle: saline) was 122 % of control.

For `CCOC(=O)/C(=C\c1ccccc1)P(=O)(OCC)c1ccccc1` (stereo unspecified), the T/C is 93 % of control (dose: 25.0 mg/kg/injection, schedule: Q04DX003 (ip), vehicle: Klucel (hydroxypropylcellulose) (HPC)); 95 % of control (dose: 50.0 mg/kg/injection, schedule: Q04DX003 (ip), vehicle: Klucel (hydroxypropylcellulose) (HPC)); 94 % of control (dose: 100.0 mg/kg/injection, schedule: Q04DX003 (ip), vehicle: Klucel (hydroxypropylcellulose) (HPC)).

In the case of `FC(F)(F)c1ccc2nc(CI)c(CI)nc2c1`, the T/C (dose: 6.25 mg/kg/injection, schedule: Q01DX009 (ip), vehicle: Klucel (hydroxypropylcellulose) (HPC)) was 110 % of control; the T/C (dose: 12.5 mg/kg/injection, schedule: Q01DX009 (ip), vehicle: Klucel (hydroxypropylcellulose) (HPC)) was 93 % of control; the T/C under setting [5] is 96 % of control; the T/C under setting [6] was 93 % of control.

For `CCNNC(=O)[C@@H]1[C@H](c2cc(OC)c(OC)c(OC)c2)c2cc3c(cc2[C@H](O)[C@H]1CO)OCO3`, the T/C runs as follows: under setting [3], 94 % of control; under setting [4], 86 % of control.

As to `CCOc1nsc(OCC)n1`, the T/C (dose: 12.5 mg/kg/injection, schedule: Q04DX003 (ip), vehicle: distilled water + Tween-80) is 103 % of control; the T/C (dose: 25.0 mg/kg/injection, schedule: Q04DX003 (ip), vehicle: distilled water + Tween-80) is 96 % of control; the T/C (dose: 50.0 mg/kg/injection, schedule: Q04DX003 (ip), vehicle: distilled water + Tween-80) was 99 % of control; the T/C (dose: 100.0 mg/kg/injection, schedule: Q04DX003 (ip), vehicle: distilled water + Tween-80) is 98 % of control.

On to `COc1ccc(CC(C(=O)O)C(Cc2ccc(OC)c(OC)c2)C(=O)O)cc1OC` (stereo unspecified), for which the T/C reads like this: under setting [7], 94 % of control; under setting [1], 89 % of control.

`CCC1CN1P(=O)(N(CC)CC)N1CC1CC` (stereo unspecified): the T/C under setting [3] is 113 % of control and the T/C under setting [4] is 117 % of control.

Turning to `Cc1ccc(Cl)cc1NC(=O)COc1ccc(Cl)cc1`, the T/C reads like this: under setting [2], 92 % of control; under setting [3], 91 % of control; under setting [4], 88 % of control.
